Experimental data published in US10294202B2, “Pyrrolidinones as herbicides” (FMC Corporation, priority 2013, dated 2019).
Like-named read-outs stand apart in the source and are kept apart here.

What was measured:
corn = assay: Test C pre-/postemergence herbicide test; type: in vivo, Zea mays
From the text: (§1) Seeds of plant species selected from blackgrass (Alopecurus myosuroides), ryegrass, Italian (Italian ryegrass, Lolium multiflorum), wheat (winter wheat, Triticum aestivum), galium (catchweed bedstraw, Galium aparine), corn (Zea mays), crabgrass, large (large crabgrass, Digitaria sanguinalis), foxtail, giant (giant foxtail, Setaria faberii), johnsongrass (Sorghum halepense), lambsquarters (Chenopodium album), morningglory (Ipomoea coccinea), nutsedge, yellow (yellow nutsedge, Cyperus esculentus), pigweed (Amaranthus retroflexus), ragweed (common ragweed, Ambrosia elatior), soybean (Glycine max), barnyardgrass (Echinochloa crus-galli), oilseed rape (Brassica napus), waterhemp (common waterhemp, Amaranthus rudis), kochia (Kochia scoparia), oat, wild (wild oat, Avena fatua), surinam grass (Brachiaria decumbens), foxtail, green (green foxtail, Setaria viridis), goosegrass (Eleusine indica), bromegrass, downy (downy bromegrass, Bromus tectorum), nightshade (eastern black nightshade, Solanum ptycanthum), cocklebur (common cocklebur, Xanthium strumarium), cupgrass, woolly (woolly cupgrass, Eriochloa villosa), bermudagrass (Cynodon dactylon), sunflower, (common oilseed sunflower, Helianthus annuus), Russian thistle (Salsola kali) and velvetleaf (Abutilon theophrasti) were planted into a blend of loam soil and sand and treated preemergence with test chemicals formulated in a non-phytotoxic solvent mixture which included a surfactant. At the same time, plants selected from these crop and weed species and also barley (winter barley, Hordeum vulgare), […]), chickweed (common chickweed, Stellaria media), deadnettle (henbit deadnettle, Lamium amplexicaule), and canarygrass (littleseed canarygrass, Phalaris minor) were planted in pots containing Redi-Earth® planting medium (Scotts Company, 14111 Scottslawn Road, Marysville, Ohio 43041) comprising spaghnum peat moss, vermiculite, wetting agent and starter nutrients and treated with postemergence applications of test chemicals formulated in the same manner. Plants ranged in height from 2 to 18 cm (1- to 4-leaf stage) for postemergence treatments. Treated plants and controls were maintained in a greenhouse for 13 to 15 days, after which time all species were compared to controls and visually evaluated. Plant response ratings, summarized in Table C, are based on a scale of 0 to 100 where 0 is no effect and 100 is complete control. A dash (-) response means no test result.

galium = assay: Test C pre-/postemergence herbicide test; type: in vivo, Galium aparine
From the text: as §1

barnyardgrass = assay: Test A pre-/postemergence herbicide test; type: in vivo, Echinochloa crus-galli; settings: for Barnyardgrass plant response rating: Preemergence, visual rating on 0 to 100 scale (0 no effect, 100 complete control); for pest or weed control at 125 g/ha / pest or weed control at 500 g/ha: Echinochloa crus-galli, 240 h, read-out: Plant response rating, Barnyardgrass
In short: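 Formulated compound (non-phytotoxic solvent, surfactant) sprayed pre- onto soil of seeded loam/sand pots or post- onto seedlings at 1–2 leaves; ~10 d greenhouse; 0–100 visual control rating versus untreated.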

velvetleaf = assay: Test C pre-/postemergence herbicide test; type: in vivo, Abutilon theophrasti
From the text: as §1

foxtail, giant = assay: Test C pre-/postemergence herbicide test; type: in vivo, Setaria faberii
From the text: as §1

blackgrass = assay: Test C pre-/postemergence herbicide test; type: in vivo, Alopecurus myosuroides
From the text: as §1

lambsquarters = assay: Test C pre-/postemergence herbicide test; type: in vivo, Chenopodium album
From the text: as §1

pigweed = assay: Test C pre-/postemergence herbicide test; type: in vivo, Amaranthus retroflexus
From the text: as §1

crabgrass, large = assay: Test C pre-/postemergence herbicide test; type: in vivo, Digitaria sanguinalis
From the text: as §1

[1] = Postemergence, 31 g ai/ha, scale 0 to 100 (0 no effect, 100 complete control)
[2] = Postemergence, 62 g ai/ha, scale 0 (no effect) to 100 (complete control)
[3] = Postemergence, 125 g ai/ha, scale 0 to 100 (0 no effect, 100 complete control)
[4] = Postemergence, 250 g ai/ha, scale 0 to 100 (0 no effect, 100 complete control)
[5] = Preemergence, 31 g ai/ha, scale 0 to 100, 0 is no effect and 100 is complete control
[6] = Preemergence, 62 g ai/ha, scale 0 to 100 (0 no effect, 100 complete control)
[7] = Preemergence, 125 g ai/ha, scale 0 to 100 (0 no effect, 100 complete control)
[8] = 125 g ai/ha, visual rating, 0 to 100 scale, 0 no effect, 100 complete control, approximately 10 days, preemergence
[9] = Postemergence, 125 g ai/ha, 0 to 100 scale, 0 is no effect, 100 is complete control
[10] = preemergence, 500 g ai/ha, 0 to 100 scale, 0 is no effect and 100 is complete control
[11] = Preemergence, 62 g ai/ha, scale 0 to 100
[12] = Preemergence, 31 g ai/ha, scale 0 to 100 (0 no effect, 100 complete control)
[13] = Preemergence, 250 g ai/ha, scale 0 to 100 (0 no effect, 100 complete control)
[14] = Postemergence, 125 g ai/ha, 0 to 100 scale, 0 no effect, 100 complete control
[15] = Postemergence, 500 g ai/ha, 0 to 100 scale (0 no effect, 100 complete control)
[16] = preemergence, 500 g ai/ha, 0 to 100 scale (0 no effect, 100 complete control)
[17] = post-emergence, Postemergence, 125 g ai/ha, 0 to 100 scale, 0 no effect, 100 complete control
[18] = post-emergence, Postemergence, 500 g ai/ha, 0 to 100 scale (0 no effect, 100 complete control)
[19] = pre-emergence, preemergence, 500 g ai/ha, 0 to 100 scale (0 no effect, 100 complete control)

Structure (SMILES): O=C1NC[C@H](c2cccc(C(F)(F)F)c2)[C@H]1C(=O)Nc1cccc(F)c1F [Compound 206]
- Plant response rating, Corn (corn; [1]): 0
- Plant response rating, Corn (corn; [2]): 0
- Plant response rating, Corn (corn; [3]): 30
- Plant response rating, Corn (corn; [4]): 50
- Corn plant response rating (corn; [5]): 30
- Corn plant response rating (corn; [6]): 60
- Plant response rating, Corn (corn; [7]): 65
- Plant response rating (scale of 0 to 100), Corn (corn; Preemergence, 250 g ai/ha): 60
- Plant response rating, Galium (galium; [1]): 60
- Plant response rating, Galium (galium; [2]): 75
- Plant response rating, Galium (galium; [3]): 75
- Plant response rating, Galium (galium; [4]): 75
- Galium plant response rating (galium; [5]): 20
- Galium plant response rating (galium; [6]): 70
- Plant response rating, Galium (galium; [7]): 70
- Plant response rating (scale of 0 to 100), Galium (galium; Preemergence, 250 g ai/ha): 85
- Plant response rating, Barnyardgrass (barnyardgrass; [8]): 90
- Plant response rating, Barnyardgrass (barnyardgrass; [9]): 90
- Barnyardgrass plant response rating (0 to 100 scale, 0 is no effect, 100 is complete control) (barnyardgrass; Postemergence, 500 g ai/ha): 90
- Plant response rating, Barnyardgrass (barnyardgrass; [10]): 90
- Plant response rating, Velvetleaf (velvetleaf; [1]): 0
- Plant response rating, Velvetleaf (velvetleaf; [2]): 0
- Plant response rating, Velvetleaf (velvetleaf; [3]): 15
- Plant response rating, Velvetleaf (velvetleaf; [4]): 15
- Velvetleaf plant response rating (velvetleaf; [5]): 0
- Velvetleaf plant response rating (velvetleaf; [6]): 50
- Plant response rating, Velvetleaf (velvetleaf; [7]): 40
- Plant response rating (scale of 0 to 100), Velvetleaf (velvetleaf; Preemergence, 250 g ai/ha): 60
- Plant response rating, Foxtail, Giant (foxtail, giant; [1]): 0
- Plant response rating, Foxtail, Giant (foxtail, giant; [2]): 50
- Plant response rating, Foxtail, Giant (foxtail, giant; [3]): 50
- Plant response rating, Foxtail, Giant (foxtail, giant; [4]): 85
- Foxtail, Giant plant response rating (foxtail, giant; [5]): 90
- Foxtail, Giant plant response rating (foxtail, giant; [6]): 90
- Plant response rating, Foxtail, Giant (foxtail, giant; [7]): 95
- Plant response rating (scale of 0 to 100), Foxtail, Giant (foxtail, giant; Preemergence, 250 g ai/ha): 95
- Plant response rating, Blackgrass (blackgrass; [1]): 0
- Plant response rating, Blackgrass (blackgrass; [2]): 0
- Plant response rating, Blackgrass (blackgrass; [3]): 40
- Plant response rating, Blackgrass (blackgrass; [4]): 60
- Blackgrass plant response rating (blackgrass; [5]): 85
- Plant response rating, Blackgrass (blackgrass; [11]): 90
- Plant response rating, Blackgrass (blackgrass; [7]): 90
- Plant response rating (scale of 0 to 100), Blackgrass (blackgrass; Preemergence, 250 g ai/ha): 90
- Plant response rating, Lambsquarters (lambsquarters; [1]): 50
- Plant response rating, Lambsquarters (lambsquarters; [2]): 75
- Plant response rating, Lambsquarters (lambsquarters; [3]): 10
- Plant response rating, Lambsquarters (lambsquarters; [4]): 20
- Lambsquarters plant response rating (lambsquarters; [5]): 75
- Lambsquarters plant response rating (lambsquarters; [6]): 100
- Plant response rating, Lambsquarters (lambsquarters; [7]): 100
- Plant response rating (scale of 0 to 100), Lambsquarters (lambsquarters; Preemergence, 250 g ai/ha): 100
- Plant response rating, Pigweed (pigweed; [1]): 30
- Plant response rating, Pigweed (pigweed; [2]): 40
- Plant response rating, Pigweed (pigweed; [3]): 50
- Plant response rating, Pigweed (pigweed; [4]): 30
- Pigweed plant response rating (pigweed; [5]): 70
- Pigweed plant response rating (pigweed; [6]): 100
- Plant response rating, Pigweed (pigweed; [7]): 100
- Plant response rating (scale of 0 to 100), Pigweed (pigweed; Preemergence, 250 g ai/ha): 85
- Plant response rating, Crabgrass, Large (crabgrass, large; [1]): 45
- Plant response rating, Crabgrass, Large (crabgrass, large; [2]): 50
- Plant response rating, Crabgrass, Large (crabgrass, large; [3]): 70
- Plant response rating, Crabgrass, Large (crabgrass, large; [4]): 80
- Crabgrass, Large plant response rating (crabgrass, large; [5]): 90
- Crabgrass, Large plant response rating (crabgrass, large; [6]): 90
- Plant response rating, Crabgrass, Large (crabgrass, large; [7]): 95
- Plant response rating (scale of 0 to 100), Crabgrass, Large (crabgrass, large; Preemergence, 250 g ai/ha): 95

Structure (SMILES): O=C1NCC(c2ccc(Cl)c(Cl)c2)C1C(=O)Nc1ccccc1F (racemic) [Compound 14]
- Plant response rating, Corn (corn; [11]): 0
- Plant response rating, Corn (corn; [7]): 0
- Corn plant response rating (corn; [12]): 0
- Plant response rating, Corn (corn; [13]): 0
- Plant response rating, Galium (galium; [11]): 0
- Plant response rating, Galium (galium; [7]): 70
- Galium plant response rating (galium; [12]): 0
- Plant response rating, Galium (galium; [13]): 85
- Plant response rating, Barnyardgrass (barnyardgrass; [14]): 60
- Plant response rating, Barnyardgrass (barnyardgrass; [15]): 80
- Barnyardgrass plant response rating (barnyardgrass; 125 g ai/ha): 80
- Plant response rating, Barnyardgrass (barnyardgrass; [16]): 90
- Plant response rating, Velvetleaf (velvetleaf; [11]): 0
- Plant response rating, Velvetleaf (velvetleaf; [7]): 0
- Plant response rating, Foxtail, Giant (foxtail, giant; [11]): 85
- Plant response rating, Foxtail, Giant (foxtail, giant; [7]): 90
- Foxtail, Giant plant response rating (foxtail, giant; [12]): 85
- Plant response rating, Foxtail, Giant (foxtail, giant; [13]): 95
- Plant response rating, Blackgrass (blackgrass; [11]): 0
- Plant response rating, Blackgrass (blackgrass; [7]): 0
- Blackgrass plant response rating (blackgrass; [12]): 0
- Plant response rating, Blackgrass (blackgrass; [13]): 0
- Plant response rating, Pigweed (pigweed; [11]): 0
- Plant response rating, Pigweed (pigweed; [7]): 0
- Plant response rating, Crabgrass, Large (crabgrass, large; [11]): 98
- Plant response rating, Crabgrass, Large (crabgrass, large; [7]): 98
- Crabgrass, Large plant response rating (crabgrass, large; [12]): 90
- Plant response rating, Crabgrass, Large (crabgrass, large; [13]): 100

Structure (SMILES): O=C1NCC(c2ccccc2)C1(Br)C(=O)Nc1ccccc1F (stereo not shown) [Compound 93, 3-bromo-N-(2-fluorophenyl)-2-oxo-4-phenyl-3-pyrrolidinecarboxamide]
- pest or weed control at 125 g/ha (barnyardgrass; [17]): 10%
- pest or weed control at 500 g/ha (barnyardgrass; [18]): 60%
- pest or weed control at 500 g/ha (barnyardgrass; [19]): 90%
- Barnyardgrass plant response rating (barnyardgrass; 125 g ai/ha): 50

Structure (SMILES): O=C1NCC(Br)(c2ccccc2)C1C(=O)Nc1ccccc1F (stereo not shown) [Compound 92, 4-bromo-N-(2-fluorophenyl)-2-oxo-4-phenyl-3-pyrrolidinecarboxamide]
- pest or weed control at 125 g/ha (barnyardgrass; [17]): 20%
- pest or weed control at 500 g/ha (barnyardgrass; [18]): 70%
- pest or weed control at 500 g/ha (barnyardgrass; [19]): 90%
- Barnyardgrass plant response rating (barnyardgrass; 125 g ai/ha): 60

Structure (SMILES): O=C1NCC(c2ccc(F)c(F)c2)C1C(=O)Nc1ccccc1C(F)(F)F (racemic) [Compound 6]
- Plant response rating, Barnyardgrass (barnyardgrass; [14]): 40
- Plant response rating, Barnyardgrass (barnyardgrass; [15]): 80
- Barnyardgrass plant response rating (barnyardgrass; 125 g ai/ha): 50
- Plant response rating, Barnyardgrass (barnyardgrass; [16]): 80

Structure (SMILES): O=C1NCC(c2cccc(C(F)F)c2)C1C(=O)Nc1ccccc1F (racemic) [Compound 210]
- Plant response rating, Barnyardgrass (barnyardgrass; [8]): 60
- Plant response rating, Barnyardgrass (barnyardgrass; [9]): 80
- Barnyardgrass plant response rating (0 to 100 scale, 0 is no effect, 100 is complete control) (barnyardgrass; Postemergence, 500 g ai/ha): 90
- Plant response rating, Barnyardgrass (barnyardgrass; [10]): 90
